Source: PubChem BioAssay AID977627 (Broad Institute, 2014)
Records with an inconclusive call do not appear.

System: E. coli H38 humanized ribosome GFP strain, fluorescence, 24 h
Assay: growth inhibition of wild-type RFP versus H38-humanized GFP E. coli, dose response, H38 mutant GFP vs wild-type RFP, cherry-pick (AID 977627)
Conditions: measured here: total growth OD600

Compound | AC50 [µM]
COC(=O)c1c(NC(=O)CCC(=O)O)sc(Cc2ccccc2)c1C | > 100
CC1(Cc2ccccc2C#N)C(=O)Nc2cc(-c3ccccc3Cl)ccc21 (configuration not stated) | 41.9
